Experimental data published in patent publication US20240183865A1, “METHOD FOR MEASURING AGGREGATING PROTEINS, METHOD FOR VISUALIZING AGGREGATION, AND KIT USED THEREFOR” (KANEKA CORPORATION, priority 2021, published 2024).

Target: T1, Aβ42 (Homo sapiens, UniProt P05067)
T1 construct: the amyloid β42 protein (Aβ42)
Assay: MSHTS quantification of aggregated Aβ with QD-Aβ40 in filtrate collected with Blocking 12
Format: biochemical
Details: Aβ42 and QD-Aβ40, 37° C. for 24 hours, SD value, read-out: RA concentration at which Aβ accounting for approximately 50% of the whole would not be aggregated
Method: Accordingly, whether or not it is possible to visualize aggregation of the amyloid β protein in such filtrate was examined. The quantum-dot-modified amyloid 40 protein (QD-Aβ40) was dissolved in the filtrate collected in Example 3, the solution was added to and mixed with the 1 mM Aβ42 solution, and the filtrate collected in Example 3 comprising 50 μM Aβ42 and 50 nM QD-Aβ40 was prepared. The 150 mM rosmarinic acid (RA) solution was diluted with the filtrate collected in Example 3 to five levels of concentration (3,000 μM, 600 μM, 120 μM, 24 μM, and 4.8 μM). Aβ42 and QD-A$40 were diluted with the filtrate collected in Example 3 to prepare a mixture of 50 μM Aβ42 and 50 nM QD-Aβ40. […] As a result, none of the solutions were sufficient in terms of sensitivity of SD values to perform quantitative analysis of aggregated Aβ (FIG. 4).
With the use of Blocking 12, accordingly, a 50 μM Aβ42 solution was prepared from the filtrate collected in the same manner as in Example 2, and QD-Aβ40 was diluted in the collected filtrate to adjust the concentration of QD-Aβ40 to 50 nM. […] These reaction solutions were incubated at 37° C. for 24 hours, aggregated Aβ was observed under a fluorescent microscope, and aggregated AD was quantified. […] It was found necessary that the sensitivity of the SD value be 60% or higher relative to that of PBS designated as 100% for quantification of aggregated AD.

T1 sequence (P05067 672-713 limits assumed): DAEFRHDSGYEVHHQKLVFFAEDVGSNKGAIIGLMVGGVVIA

EC50: ≤ 46 µM
Compound: O=C(/C=C/c1ccc(O)c(O)c1)O[C@H](Cc1ccc(O)c(O)c1)C(=O)O [RA, rosmarinic acid]
